Test results from patent US8663669B2, “Pesticide treatment of soils or substrates with sulphur compounds” (Arkema France, priority 2002, dated 2014).

Tested on: Sclerotium rolfsii
Assay: Fungicidal efficacy by gassing, sclerotia
Assay type: cell-based
Set-up: Vitality score Nm (over 19 days): scale not given here; Reduction in viability RV / Reduction in vitality score RNm: unit not given here
Settings: for Reduction in viability RV / Reduction in vitality score RNm: compared with the control
Procedure: These four organisms are the following:
Sclerotium rolfsii: a fungus which is also polyphagous and which is found, for example, on melon and courgette crops.
• Sclerotinia sclerotiorum: sclerotia • Sclerotium rolfsii: sclerotia • Rhizoctonia solani: colonized barley grains (mycelium and sclerotia) • Phytophthora cactorum: colonized millet grains (mycelium, sporangia and oospores) Preparation of the Fungi (24 h Before the Gassing Operation) 1. Preparation of the sclerotia of Sclerotinia sclerotiorum and of Sclerotium rolfsii: The fungi are cultured on malt agar medium until the sclerotia are obtained. The sclerotia are collected in a sterile manner and stored dry in empty Petri dishes until they are used. The sclerotia used for the trial are over 3 months old and are perfectly dormant. 2. Preparation of Phytophthora cactorum and of Rhizoctonia solani: The millet and barley used for the multiplication of the two fungi are moistened with ultrapure water by immersing for 24 hours. The grains are then slightly drained and then distributed into flasks and autoclaved (3 autoclavings at 110° C. for 20 minutes, 3 times at 24 hour intervals). Fragments of fungal culture are introduced into the flasks which are then incubated at 22° C.±2° C. (white light 18 h) until homogeneous colonization is obtained. The grains are then removed from the flasks in a sterile manner, dried in the sterile stream of a safety cabinet and then stored in the dry state until they are used. Conditions for Gassing and for Desorption
All the batches of fungi to be treated are placed for a few hours at the trial temperature (20° C.). Between 35 and 300 units of fungi or “propagules” (grains or sclerotia) are subjected to gassing during each trial.
Each fumigation chamber comprising to one or more species of fungi corresponds to a glass round-bottomed flask which is impervious to the gas and has a volume of 11 litres. Each round-bottomed flask is equipped with branch connections, one at the bottom for introducing the liquid DMDS, one at the top for collecting the air sample with a syringe.
Before introducing the gas, a partial vacuum (−500 mbar) is established in the round-bottomed flask with a vacuum pump. This makes it possible, on the one hand, to avoid the phenomenon of excess pressure due to the expansibility of DMDS in the round-bottomed flask and, on the other hand, to promote better homogeneity of the air-gas mixture in the first few seconds which follow injection. The DMDS (weighed accurately to the mg) is injected with a syringe, in liquid form, through the bottom branch connection, that is to say under the screen placed at half height of the round-bottomed flask and supporting the batches of fungi. After introducing the product, the internal pressure of the round-bottomed flask is re-established at atmospheric pressure. A magnetic stirrer operates during the entire duration of the treatment in order to properly homogenize the air-gas mixture.
At the end of the gassing, the cover for the round-bottomed flask is removed. One minute after this operation, the batches of fungi gassed are taken out and left in the open air for 15 minutes for desorption of the DMDS. They are then transferred into a Petri dish, the latter remaining open for 5 minutes to allow perfect desorption of the gas. […]

[1] = CT 1 050 g·h/m^3 (C 15.91 g/m^3, T 66 h)
[2] = CT 1 402 g·h/m^3 (C 21.24 g/m^3, T 66 h)
[3] = CT 1 450 g·h/m^3 (C 30.96 g/m^3, T 48 h)
[4] = CT 1 899 g·h/m^3 (C 28.77 g/m^3, T 66 h)
[5] = CT 1 981 g·h/m^3 (C 30.02 g/m^3, T 66 h)
[6] = CT 2 460 g·h/m^3 (C 51.25 g/m^3, T 48 h)
[7] = CT 2 471 g·h/m^3 (C 37.44 g/m^3, T 66 h)
[8] = CT 2 837 g·h/m^3 (C 42.98 g/m^3, T 66 h)
[9] = CT 2 974 g·h/m^3 (C 45.06 g/m^3, T 66 h)
[10] = CT 3 169 g·h/m^3 (C 48.02 g/m^3, T 66 h)
[11] = CT 3 467 g·h/m^3 (C 52.53 g/m^3, T 66 h)
[12] = CT 419 g·h/m^3 (C 17.46 g/m^3, T 24 h)
[13] = CT 625 g·h/m^3 (C 26.04 g/m^3, T 24 h)
[14] = CT 703 g·h/m^3 (C 29.29 g/m^3, T 24 h)
[15] = CT 907 g·h/m^3 (C 37.79 g/m^3, T 24 h)

With CSSC [DMDS, dimethyl disulphide] the “Viability V” value [1] was 27.6%, the “Vitality score Nm (over 19 days)” value [1] was 2.1 and the “Reduction in viability RV” value [1] was 68.0. The “Reduction in vitality score RNm” value [1] was 71.1, the “Viability V” value [2] was 18.3% and the “Vitality score Nm (over 19 days)” value [2] was 1.3. The “Reduction in viability RV” value [2] was 78.7, the “Reduction in vitality score RNm” value [2] was 81.8 and the “Viability V” value [3] was 15.0%. For the same compound, the “Vitality score Nm (over 19 days)” value [3] was 0.7, the “Reduction in viability RV” value [3] was 83.2 and the “Reduction in vitality score RNm” value [3] was 91.8. The “Viability V” value [4] was 3.1%, the “Vitality score Nm (over 19 days)” value [4] was 0.2 and the “Reduction in viability RV” value [4] was 96.4. The “Reduction in vitality score RNm” value [4] was 96.8, the “Viability V” value [5] was 4.3% and the “Vitality score Nm (over 19 days)” value [5] was 0.3. For the same compound, the “Reduction in viability RV” value [5] was 95.0, the “Reduction in vitality score RNm” value [5] was 95.1 and the “Viability V” value [6] was 10.0%. The “Vitality score Nm (over 19 days)” value [6] was 0.4, the “Reduction in viability RV” value [6] was 88.8 and the “Reduction in vitality score RNm” value [6] was 94.7. For the same compound, the “Viability V” value [7] was 0%, the “Vitality score Nm (over 19 days)” value [7] was 0 and the “Reduction in viability RV” value [7] was 100. The “Reduction in vitality score RNm” value [7] was 100, the “Viability V” value [8] was 0% and the “Vitality score Nm (over 19 days)” value [8] was 0. The “Reduction in viability RV” value [8] was 100, the “Reduction in vitality score RNm” value [8] was 100 and the “Viability V” value [9] was 0%. The “Vitality score Nm (over 19 days)” value [9] was 0, the “Reduction in viability RV” value [9] was 100 and the “Reduction in vitality score RNm” value [9] was 100. The “Viability V” value [10] was 0%, the “Vitality score Nm (over 19 days)” value [10] was 0 and the “Reduction in viability RV” value [10] was 100. The “Reduction in vitality score RNm” value [10] was 100, the “Viability V” value [11] was 0% and the “Vitality score Nm (over 19 days)” value [11] was 0. For the same compound, the “Reduction in viability RV” value [11] was 100, the “Reduction in vitality score RNm” value [11] was 100 and the “Viability V” value [12] was 59.1%. For the same compound, the “Vitality score Nm (over 19 days)” value [12] was 5.1, the “Reduction in viability RV” value [12] was 33.7 and the “Reduction in vitality score RNm” value [12] was 40.9. The “Viability V” value [13] was 53.7%, the “Vitality score Nm (over 19 days)” value [13] was 4.8 and the “Reduction in viability RV” value [13] was 39.8. The “Reduction in vitality score RNm” value [13] was 44.3, the “Viability V” value [14] was 51.4% and the “Vitality score Nm (over 19 days)” value [14] was 4.4. For the same compound, the “Reduction in viability RV” value [14] was 42.4, the “Reduction in vitality score RNm” value [14] was 48.7 and the “Viability V” value [15] was 16.2%. The “Vitality score Nm (over 19 days)” value [15] was 1.4, the “Reduction in viability RV” value [15] was 81.8 and the “Reduction in vitality score RNm” value [15] was 84.2.
